Measured values reported in ChEMBL document CHEMBL3871290, “3-Cyano-6-(5-methyl-3-pyrazoloamino) pyridines (Part 2): A dual inhibitor of Aurora kinase and tubulin polymerization” (Bioorg Med Chem Lett, 2016).

Tests used:
Cytochrome P450 1A2 = target: T1, Cytochrome P450 1A2 (Homo sapiens, UniProt P05177); assay: Inhibition of CYP1A2 (unknown origin); assay type: ADME
T1 sequence (P05177 whole entry): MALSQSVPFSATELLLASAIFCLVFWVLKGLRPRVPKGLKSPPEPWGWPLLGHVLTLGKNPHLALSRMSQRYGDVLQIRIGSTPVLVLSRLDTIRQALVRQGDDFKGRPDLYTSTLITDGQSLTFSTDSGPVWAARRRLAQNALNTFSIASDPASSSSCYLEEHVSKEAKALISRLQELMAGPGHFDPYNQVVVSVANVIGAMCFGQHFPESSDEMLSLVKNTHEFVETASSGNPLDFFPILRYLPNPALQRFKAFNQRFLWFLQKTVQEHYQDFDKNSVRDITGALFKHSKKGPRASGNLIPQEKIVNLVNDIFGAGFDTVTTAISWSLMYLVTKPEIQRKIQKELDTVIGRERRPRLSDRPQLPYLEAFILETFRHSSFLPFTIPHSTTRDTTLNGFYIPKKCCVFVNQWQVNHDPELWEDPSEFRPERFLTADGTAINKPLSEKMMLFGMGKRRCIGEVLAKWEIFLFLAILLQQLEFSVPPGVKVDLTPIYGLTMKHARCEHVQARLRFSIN

Aurora kinase A = target: T2, Aurora kinase A (Homo sapiens, UniProt O14965); assay: Inhibition of recombinant Aurora A kinase derived from human Hela cells using kemptide as substrate in presence of [c-32P]ATP
T2 sequence (O14965 whole entry): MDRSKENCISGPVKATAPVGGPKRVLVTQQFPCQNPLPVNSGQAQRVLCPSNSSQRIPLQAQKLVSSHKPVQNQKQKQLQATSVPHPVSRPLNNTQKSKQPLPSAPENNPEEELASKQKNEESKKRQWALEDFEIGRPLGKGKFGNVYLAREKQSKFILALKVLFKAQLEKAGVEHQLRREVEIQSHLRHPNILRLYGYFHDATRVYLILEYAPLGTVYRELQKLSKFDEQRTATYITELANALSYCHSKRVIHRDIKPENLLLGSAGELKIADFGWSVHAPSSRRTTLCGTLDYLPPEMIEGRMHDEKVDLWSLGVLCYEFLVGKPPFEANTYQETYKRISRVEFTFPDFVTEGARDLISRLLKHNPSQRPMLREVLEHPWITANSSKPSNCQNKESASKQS

[1] = Cytotoxicity against human HCT116 cells assessed as cell growth inhibition; assay type: functional; conditions: HCT-116
Cytochrome P450 3A4 = Cytochrome P450 3A4 (Homo sapiens, UniProt P08684); assay: Inhibition of CYP3A4 (unknown origin); assay type: ADME
Cytochrome P450 2D6 = Cytochrome P450 2D6 (Homo sapiens, UniProt P10635); assay: (§1) Inhibition of CYP2D6 (unknown origin); assay type: ADME
[2] = Tmax in rat at 30 mg/kg, po; assay type: ADME, organism-based; conditions: in vivo
Aurora kinase B = Aurora kinase B (Homo sapiens, UniProt Q96GD4); assay: Inhibition of Aurora 1 kinase (unknown origin)
[3] = target: Tyrosine-protein kinase Fyn (Homo sapiens, UniProt P06241); assay: Inhibition of FYN (unknown origin)
[4] = Cmax in rat at 30 mg/kg, po; assay type: ADME, organism-based; set-up: dose 30 mg/kg, route oral; conditions: in vivo
[5] = target: Tyrosine-protein kinase Lyn (Homo sapiens, UniProt P07948); assay: Inhibition of LYN (unknown origin)
[6] = Antitumor activity against human HCT116 cells xenografted subcutaneously in mouse assessed as tumor growth inhibition at 20 mg/kg, po qd administered on day 1, 5, 9, 13, 16 relative to control; assay type: functional; conditions: HCT-116, read-out: TGI
[7] = Antitumor activity against mouse CT26 cells allografted subcutaneously in mouse assessed as tumor growth inhibition at 30 mg/kg, po qd for 14 days; assay type: functional; conditions: CT26, 336 h, read-out: TGI
[8] = Antitumor activity against human HCT116 cells xenografted subcutaneously in mouse assessed as tumor growth inhibition at 30 mg/kg, po qd after 14 days; assay type: functional; conditions: HCT-116, 336 h, read-out: TGI
[9] = target: Proto-oncogene tyrosine-protein kinase Src (Homo sapiens, UniProt P12931); assay: Inhibition of cSRC (unknown origin)
[10] = Antitumor activity against human PC3 cells xenografted subcutaneously in mouse assessed as tumor growth inhibition at 30 mg/kg, po qd for 14 days; assay type: functional; conditions: PC-3, 336 h, read-out: TGI
Cytochrome P450 2C19 = Cytochrome P450 2C19 (Homo sapiens, UniProt P33261); assay: Inhibition of CYP2C19 (unknown origin); assay type: ADME
[11] = AUC in rat at 30 mg/kg, po; assay type: ADME, organism-based; conditions: in vivo
[12] = Antitumor activity against human HCT116 cells xenografted subcutaneously in mouse assessed as tumor growth inhibition at 40 mg/kg, po qd administered on day 1, 5, 9, 13, 16 relative to control; assay type: functional; conditions: HCT-116, read-out: TGI
[13] = target: Tyrosine-protein kinase Yes (Homo sapiens, UniProt P07947); assay: Inhibition of YES (unknown origin)
[14] = target: Vascular endothelial growth factor receptor 2 (Homo sapiens, UniProt P35968); assay: Inhibition of KDR (unknown origin)
[15] = target: Fibroblast growth factor receptor 1 (Homo sapiens, UniProt P11362); assay: Inhibition of FGFR1 (unknown origin)
Cytochrome P450 2C9 = Cytochrome P450 2C9 (Homo sapiens, UniProt P11712); assay: Inhibition of CYP2C9 (unknown origin); assay type: ADME
Mus musculus = assay: Toxicity in mouse allografted subcutaneously with mouse CT26 cells assessed as mortality at 30 mg/kg, ip qd for 14 days; assay type: organism-based; conditions: in vivo, 336 h
[16] = Antitumor activity against mouse CT26 cells allografted subcutaneously in mouse assessed as tumor growth inhibition at 25 mg/kg, ip qd for 14 days; assay type: functional; conditions: CT26, 336 h, read-out: TGI
CYP2D6 = CYP2D6 (Homo sapiens, UniProt P10635); assay: as §1; assay type: ADME
Sequence of CYP2D6 (P10635 whole entry): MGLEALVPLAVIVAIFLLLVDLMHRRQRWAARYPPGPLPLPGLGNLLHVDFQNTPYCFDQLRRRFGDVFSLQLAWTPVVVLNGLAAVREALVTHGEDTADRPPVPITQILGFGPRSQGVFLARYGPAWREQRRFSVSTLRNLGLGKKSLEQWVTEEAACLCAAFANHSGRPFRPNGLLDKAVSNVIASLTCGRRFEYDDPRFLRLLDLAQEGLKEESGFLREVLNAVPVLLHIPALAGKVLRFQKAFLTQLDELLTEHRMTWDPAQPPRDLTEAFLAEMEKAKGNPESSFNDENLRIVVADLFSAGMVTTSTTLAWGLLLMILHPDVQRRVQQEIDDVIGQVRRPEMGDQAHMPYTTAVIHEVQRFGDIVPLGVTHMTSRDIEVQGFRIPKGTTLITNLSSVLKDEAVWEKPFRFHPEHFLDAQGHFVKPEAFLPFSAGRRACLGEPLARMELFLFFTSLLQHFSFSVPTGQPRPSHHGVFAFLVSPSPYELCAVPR

Sequence of Cytochrome P450 3A4 (P08684 whole entry): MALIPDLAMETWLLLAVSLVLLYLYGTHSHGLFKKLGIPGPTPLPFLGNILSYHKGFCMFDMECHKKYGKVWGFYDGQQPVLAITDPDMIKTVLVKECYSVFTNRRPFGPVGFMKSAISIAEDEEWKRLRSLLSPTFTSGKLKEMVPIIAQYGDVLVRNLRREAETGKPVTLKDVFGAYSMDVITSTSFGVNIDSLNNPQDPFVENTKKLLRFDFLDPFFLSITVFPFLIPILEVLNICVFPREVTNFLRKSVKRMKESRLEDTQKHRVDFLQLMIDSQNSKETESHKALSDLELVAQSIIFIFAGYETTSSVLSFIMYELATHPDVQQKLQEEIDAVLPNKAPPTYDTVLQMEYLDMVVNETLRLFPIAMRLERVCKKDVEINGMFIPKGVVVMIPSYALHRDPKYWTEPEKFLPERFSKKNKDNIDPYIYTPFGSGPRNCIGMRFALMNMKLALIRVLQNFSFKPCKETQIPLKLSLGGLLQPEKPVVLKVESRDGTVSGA
Sequence of Cytochrome P450 2C19 (P33261 whole entry): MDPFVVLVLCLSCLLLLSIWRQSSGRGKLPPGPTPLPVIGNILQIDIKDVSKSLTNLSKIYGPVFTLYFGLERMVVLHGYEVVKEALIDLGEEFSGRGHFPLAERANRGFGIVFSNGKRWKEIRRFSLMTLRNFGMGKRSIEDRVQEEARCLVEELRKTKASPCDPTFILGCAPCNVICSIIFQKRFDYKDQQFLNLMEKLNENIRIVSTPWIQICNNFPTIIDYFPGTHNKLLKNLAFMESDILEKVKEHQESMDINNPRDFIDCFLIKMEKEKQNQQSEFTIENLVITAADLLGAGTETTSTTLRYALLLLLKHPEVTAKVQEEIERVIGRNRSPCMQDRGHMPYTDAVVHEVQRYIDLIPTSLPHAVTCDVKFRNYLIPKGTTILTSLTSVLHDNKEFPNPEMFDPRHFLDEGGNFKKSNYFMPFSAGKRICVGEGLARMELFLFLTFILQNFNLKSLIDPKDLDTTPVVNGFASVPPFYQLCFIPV
Sequence of Cytochrome P450 2D6 (P10635 whole entry): as the sequence (P10635 whole entry) above
Sequence of Cytochrome P450 2C9 (P11712 whole entry): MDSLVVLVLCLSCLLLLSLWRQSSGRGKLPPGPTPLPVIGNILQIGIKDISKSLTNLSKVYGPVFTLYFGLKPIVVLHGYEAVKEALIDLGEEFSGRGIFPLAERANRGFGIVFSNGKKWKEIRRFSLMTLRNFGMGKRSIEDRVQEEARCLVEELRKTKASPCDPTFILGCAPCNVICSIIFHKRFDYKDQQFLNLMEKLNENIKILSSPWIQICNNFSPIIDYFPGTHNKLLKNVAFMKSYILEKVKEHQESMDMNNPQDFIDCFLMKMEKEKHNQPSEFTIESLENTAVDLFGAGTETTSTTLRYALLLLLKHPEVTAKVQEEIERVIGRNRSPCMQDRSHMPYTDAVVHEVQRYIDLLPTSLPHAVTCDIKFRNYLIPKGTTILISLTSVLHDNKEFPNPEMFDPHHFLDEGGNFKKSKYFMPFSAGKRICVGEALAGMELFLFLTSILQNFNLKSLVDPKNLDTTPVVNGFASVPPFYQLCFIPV
Sequence of Tyrosine-protein kinase Lyn (P07948 whole entry): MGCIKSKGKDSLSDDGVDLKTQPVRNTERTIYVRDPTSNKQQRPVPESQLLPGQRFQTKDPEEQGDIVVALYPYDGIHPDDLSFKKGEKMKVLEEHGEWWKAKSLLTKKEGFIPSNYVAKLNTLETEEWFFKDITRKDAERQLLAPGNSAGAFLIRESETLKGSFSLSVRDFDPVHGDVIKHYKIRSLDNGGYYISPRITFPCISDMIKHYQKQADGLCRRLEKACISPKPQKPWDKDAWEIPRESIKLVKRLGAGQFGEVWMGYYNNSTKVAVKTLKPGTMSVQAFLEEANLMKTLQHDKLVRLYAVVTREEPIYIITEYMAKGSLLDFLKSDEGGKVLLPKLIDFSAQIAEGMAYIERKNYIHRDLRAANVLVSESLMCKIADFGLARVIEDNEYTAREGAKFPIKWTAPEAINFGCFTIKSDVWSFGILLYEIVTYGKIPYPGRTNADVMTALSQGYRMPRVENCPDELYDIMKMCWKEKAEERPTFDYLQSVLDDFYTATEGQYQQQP
Sequence of Aurora kinase B (Q96GD4 whole entry): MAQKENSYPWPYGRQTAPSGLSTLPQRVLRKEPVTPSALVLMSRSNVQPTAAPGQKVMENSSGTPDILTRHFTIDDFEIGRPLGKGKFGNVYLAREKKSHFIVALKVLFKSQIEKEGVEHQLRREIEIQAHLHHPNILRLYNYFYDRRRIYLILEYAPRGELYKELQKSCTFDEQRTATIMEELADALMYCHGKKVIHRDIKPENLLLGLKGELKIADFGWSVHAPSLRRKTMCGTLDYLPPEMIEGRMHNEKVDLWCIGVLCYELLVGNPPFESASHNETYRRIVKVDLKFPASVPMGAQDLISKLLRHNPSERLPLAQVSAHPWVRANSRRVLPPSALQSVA
Sequence of Vascular endothelial growth factor receptor 2 (P35968 whole entry): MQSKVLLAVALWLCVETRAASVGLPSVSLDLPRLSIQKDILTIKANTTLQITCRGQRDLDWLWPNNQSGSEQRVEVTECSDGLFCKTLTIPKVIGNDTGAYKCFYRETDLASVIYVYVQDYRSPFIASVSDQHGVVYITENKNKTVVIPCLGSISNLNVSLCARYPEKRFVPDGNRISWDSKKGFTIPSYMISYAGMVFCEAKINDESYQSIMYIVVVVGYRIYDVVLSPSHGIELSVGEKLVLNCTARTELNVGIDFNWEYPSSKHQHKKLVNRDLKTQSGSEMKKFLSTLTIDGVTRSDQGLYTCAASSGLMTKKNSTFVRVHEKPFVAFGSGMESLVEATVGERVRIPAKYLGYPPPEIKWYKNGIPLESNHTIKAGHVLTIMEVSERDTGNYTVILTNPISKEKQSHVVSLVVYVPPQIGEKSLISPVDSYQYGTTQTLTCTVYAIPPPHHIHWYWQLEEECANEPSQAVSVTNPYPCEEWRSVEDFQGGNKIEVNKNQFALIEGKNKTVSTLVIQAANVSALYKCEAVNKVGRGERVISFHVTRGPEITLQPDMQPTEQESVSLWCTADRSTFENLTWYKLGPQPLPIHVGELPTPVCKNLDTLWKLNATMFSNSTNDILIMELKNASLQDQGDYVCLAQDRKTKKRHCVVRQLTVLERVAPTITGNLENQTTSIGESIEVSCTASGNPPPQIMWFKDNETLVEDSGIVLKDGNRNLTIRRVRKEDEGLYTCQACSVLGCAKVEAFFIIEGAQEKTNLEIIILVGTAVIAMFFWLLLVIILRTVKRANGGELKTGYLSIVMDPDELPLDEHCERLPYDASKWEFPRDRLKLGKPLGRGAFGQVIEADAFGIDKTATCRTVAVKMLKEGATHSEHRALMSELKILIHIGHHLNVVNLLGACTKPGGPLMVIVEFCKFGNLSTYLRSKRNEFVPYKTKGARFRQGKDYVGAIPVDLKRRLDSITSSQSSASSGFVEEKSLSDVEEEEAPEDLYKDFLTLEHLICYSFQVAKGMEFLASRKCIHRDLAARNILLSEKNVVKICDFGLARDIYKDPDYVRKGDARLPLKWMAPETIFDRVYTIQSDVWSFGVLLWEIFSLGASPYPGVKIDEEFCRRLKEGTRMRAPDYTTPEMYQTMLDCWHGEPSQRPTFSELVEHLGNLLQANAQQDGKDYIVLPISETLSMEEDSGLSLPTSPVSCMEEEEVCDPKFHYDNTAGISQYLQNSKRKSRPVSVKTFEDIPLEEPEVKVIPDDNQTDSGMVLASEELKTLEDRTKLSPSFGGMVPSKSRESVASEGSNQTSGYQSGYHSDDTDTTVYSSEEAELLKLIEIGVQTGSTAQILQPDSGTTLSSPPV
Sequence of Tyrosine-protein kinase Fyn (P06241 whole entry): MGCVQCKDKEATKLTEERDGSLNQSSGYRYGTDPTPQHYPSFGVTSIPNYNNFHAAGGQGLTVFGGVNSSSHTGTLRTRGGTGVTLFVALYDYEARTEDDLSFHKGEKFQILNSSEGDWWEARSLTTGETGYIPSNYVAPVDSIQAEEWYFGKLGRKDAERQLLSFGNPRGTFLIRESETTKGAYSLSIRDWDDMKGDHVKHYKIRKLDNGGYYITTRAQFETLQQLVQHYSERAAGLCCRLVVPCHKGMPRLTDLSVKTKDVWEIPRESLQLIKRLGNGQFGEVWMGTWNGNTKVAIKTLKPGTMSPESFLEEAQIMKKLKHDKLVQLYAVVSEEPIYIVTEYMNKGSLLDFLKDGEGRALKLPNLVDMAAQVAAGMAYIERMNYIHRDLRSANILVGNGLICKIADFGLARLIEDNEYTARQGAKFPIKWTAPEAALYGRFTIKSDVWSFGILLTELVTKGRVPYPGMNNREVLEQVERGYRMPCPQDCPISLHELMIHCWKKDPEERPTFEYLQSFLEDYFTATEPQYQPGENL

| Structure (SMILES) | IC50 (Cytochrome P450 1A2) [nM] | Ki (Aurora kinase A) [nM] | IC50 (Cytochrome P450 3A4) [nM] | IC50 (Cytochrome P450 2D6) [nM] | IC50 (Cytochrome P450 2C19) [nM] | IC50 (Cytochrome P450 2C9) [nM] | GI50 [1] [nM] | also measured |
| --- | --- | --- | --- | --- | --- | --- | --- | --- |
| Cc1ccc(OCCNc2nc(Nc3cc(C)[nH]n3)cc(C)c2C#N)cn1 | 2000 | 4 | 4500 | > 50000 | 4500 | 4900 | 1 | Tmax [2]: 15 min; Ki (Aurora kinase B): 10 nM; Ki [3]: 80 nM; Cmax [4]: 19600 ng/mL; Ki [5]: 490 nM; inhibition in vivo at 20 mg/kg [6]: 44%; inhibition in vivo at 30 mg/kg [7]: 47.8%; inhibition in vivo at 30 mg/kg [8]: 81.9%; Ki [9]: 480 nM; inhibition in vivo at 30 mg/kg [10]: 85%; AUC [11]: 14.6 µg/mL; inhibition in vivo at 40 mg/kg [12]: 71%; Ki [13]: 79 nM; Ki [14]: 590 nM; Ki [15]: 80 nM |
| Cc1ccc(OCCNc2nc(Nc3cc(C)[nH]n3)cc(C)c2C#N)c(C)n1 | > 50000 |  | 1700 | > 50000 | 1700 | 3500 | 37 |  |
| CC(=O)O[C@H]1C(=O)[C@@]2(C)[C@H]([C@H](OC(=O)c3ccccc3)[C@]3(O)C[C@H](OC(=O)[C@H](O)[C@@H](NC(=O)c4ccccc4)c4ccccc4)C(C)=C1C3(C)C)[C@]1(OC(C)=O)CO[C@@H]1C[C@@H]2O [PACLITAXEL] |  |  |  |  |  |  |  | Activity (Mus musculus): Toxic; inhibition in vivo at 25 mg/kg [16]: 24.8% |
| Cc1cc(Nc2cc(C)c(C#N)c(N[C@@H](C)CCCC(C)(C)O)n2)n[nH]1 | 55000 | < 1 |  |  | < 400 | 1700 | 52 | IC50 (CYP2D6): < 50000 nM |
| Cc1cc(Nc2cc(C)c(C#N)c(NCCOc3cccnc3C)n2)n[nH]1 | 5500 |  | 1800 | > 50000 | 900 | 2400 | 4 |  |

Now from value to compound, other results behind:

| IC50 (Cytochrome P450 1A2) [nM] | Ki (Aurora kinase A) [nM] | IC50 (Cytochrome P450 3A4) [nM] | IC50 (Cytochrome P450 2D6) [nM] | IC50 (Cytochrome P450 2C19) [nM] | IC50 (Cytochrome P450 2C9) [nM] | Structure (SMILES) | GI50 [1] [nM] | also measured |
| --- | --- | --- | --- | --- | --- | --- | --- | --- |
| < 400 | 2 | 1400 | 7200 |  |  | Cc1cc(Nc2cc(C)c(C#N)c(NCCOc3ccccc3)n2)n[nH]1 | 11 |  |
| 500 |  | 1200 | 6500 | < 400 | < 200 | Cc1cc(Nc2cc(C)c(C#N)c(NCCOc3ccccc3Cl)n2)n[nH]1 | 9 |  |
| 1400 | 6 | 1600 | 46000 | 800 | 1400 | CCc1ccc(OCCNc2nc(Nc3cc(C)[nH]n3)cc(C)c2C#N)cn1 | 66 |  |
| < 400 | < 1 | 1600 | 7700 |  |  | Cc1cc(Nc2cc(C)c(C#N)c(NCCOc3ccccc3F)n2)n[nH]1 | 26 |  |
| 700 |  | < 400 | 9900 |  |  | Cc1cc(Nc2cc(C)c(C#N)c(NCCOc3cccnc3)n2)n[nH]1 | 2 |  |
| < 400 | 29 | < 400 | 2000 |  |  | Cc1cc(Nc2cc(C)c(C#N)c(NCCOc3ccncc3)n2)n[nH]1 | 120 |  |
| < 400 |  | 7200 | 29000 |  |  | Cc1cc(Nc2cc(C)c(C#N)c(NCCOc3ccccn3)n2)n[nH]1 | 67 |  |
